Laboratory results taken from a flash point compilation (Sun et al. 2020).

SMILES	flash point [°C]
CC(C)(C)c1cccc(N)c1 [3-tert-butylaniline]	101
C/C=C/C=O [trans-2-butenal]	9
COCCNCCOC [bis(2-methoxyethyl)amine]	58
c1cc[nH]c1 [pyrrole]	33
CCCCCCCOC=O [heptylformate]	60
CCC(C)(C)OC(C)=O [tert-pentylacetate]	25
CSCc1ccccc1 [benzylmethylsulfide]	73
CCCCCCCC(C)=O [2-nonanone]	68
CCOC(=O)OCC [diethylcarbonate]	33
COC(C)C [isopropylmethylether]	-47
CCC(C)c1ccccc1O (configuration not stated) [2-sec-butylphenol]	107
CCOC(=O)c1ccccc1 [ethylbenzoate]	84
CC(C)C(C)C(C)C [2,3,4-trimethylpentane]	-0
CCOC(=O)C=Cc1ccccc1 [ethylcinnamate]	135
NCC1CCCCC1 [(aminomethyl)cyclohexane]	43
CCc1cccc(CC)c1 [m-diethylbenzene]	51
CCCC(C)CC(C)C (configuration not stated) [2,4-dimethylheptane]	15
CCCC(C)I (configuration not stated) [2-iodopentane]	45
C=CN(C)C(C)=O [N-vinyl-N-methylacetamide]	63
CCC(C)(CC)C(C)C [3-ethyl-2,3-dimethylpentane]	15
COC(=O)C1CC1 [methylcyclopropanecarboxylate]	18
CCC(C)C(C)=O (configuration not stated) [3-methyl-2-pentanone]	12
CCCC#N [butyronitrile]	18
CCCC(=O)O [butanoicacid]	69
CCC(=O)OC1CCCCC1 [cyclohexylpropanoate]	68
Clc1ccccc1Cl [1,2-dichlorobenzene]	68

SMILES	flash point [°C]
COC(=O)C1CCCCC1 [methylcyclohexanecarboxylate]	60
CCc1cccc(C)c1 [m-ethyltoluene]	38
CCCCOCCOC(C)=O [2-butoxyethylacetate]	71
C=CCCC [1-pentene]	-51
C=CCOc1ccccc1 [allylphenylether]	63
CCCC(C)(C)C(C)C [2,3,3-trimethylhexane]	15
Cc1cccnc1 [3-picoline]	36
CCC1CCC(=O)C1 (configuration not stated) [3-ethylcyclopentanone]	46
CCC(C)(C(C)C)C(C)C [3-ethyl-2,3,4-trimethylpentane]	31
c1ccc(Cc2ccccc2)cc1 [diphenylmethane]	127
CCC(C)c1ccc(N)cc1 (configuration not stated) [4-sec-butylaniline]	108
CCO [ethanol]	12
CCCCCC#CCCCCl [1-chloro-4-decyne]	87
CCCCCCCCCC=O [decanal]	83
OCc1ccco1 [furfurylalcohol]	75
CCOCOCC [diethoxymethane]	-5
CCN(CC)C(C)=O [N,N-diethylacetamide]	76
CCCCCCCCCCCO [1-undecanol]	115
CCCCCCc1ccccc1 [hexylbenzene]	83
CCCOC(=O)OCCC [dipropylcarbonate]	55
CCC(C)(C)C(C)(C)CC [3,3,4,4-tetramethylhexane]	31
CCc1cccs1 [2-ethylthiophene]	21
Clc1ccccc1 [chlorobenzene]	28
CCCCCCC(=O)O [heptanoicacid]	109
CCC(C)CO (configuration not stated) [2-methyl-1-butanol]	43
C1CC[C@H]2CCCC[C@H]2C1 [cis-decalin]	57

SMILES	flash point [°C]
CCSCC [diethylsulfide]	-10
CCCCCCO [1-hexanol]	59
O=CC1CCCCC1 [cyclohexanecarboxaldehyde]	41
C=CCSSCC=C [diallyldisulfide]	62
CCCCCCC(C)C [2-methyloctane]	24
CCCCC(=O)OC [methylpentanoate]	22
CCCC(C)(C)CCC [4,4-dimethylheptane]	15
C#CC(C)(C)C [3,3-dimethyl-1-butyne]	-34
CCCCC(O)CC (configuration not stated) [3-heptanol]	55
CCCCCO [1-pentanol]	49
CC(Cl)Cl [1,1-dichloroethane]	-10
CCCCC1CCCC1 [butylcyclopentane]	32
CCCCCc1ccccc1 [pentylbenzene]	66
C=C(CC)CC [2-ethyl-1-butene]	-26
CC(C)CO [2-methyl-1-propanol]	28
CCCOC(=O)c1ccccc1 [propylbenzoate]	98
CCCCCCCCC=O [nonanal]	63
CCCC(CCC)CCC [4-propylheptane]	35
CCCCOC [butylmethylether]	-10
CC(C)CC#N [3-methylbutanenitrile]	28
Clc1cccc(Cl)c1 [1,3-dichlorobenzene]	63
CCCC(=O)CC [3-hexanone]	23
CCCCCCCCC(C)O (configuration not stated) [2-decanol]	85
C1CCC2OC2C1 (configuration not stated) [cyclohexeneoxide]	24
CCCCCCCCCCC(C)C [2-methyldodecane]	71
Cc1ccoc1 [3-methylfuran]	-22

SMILES	flash point [°C]
CCC(CC)(CC)CC [3,3-diethylpentane]	21
CC1CCCC(=O)CCC1 [5-methylcyclooctanone]	71
OC1CCCCC1 [cyclohexanol]	63
CCCSCCC [dipropylsulfide]	28
CCCCCCCCOC(C)=O [octylacetate]	82
CC(C)C(=O)OC(=O)C(C)C [isobutanoicanhydride]	67
ClCCCl [1,2-dichloroethane]	13
O=[N+]([O-])c1ccccc1 [nitrobenzene]	88
CCC1CCCCCC1=O (configuration not stated) [2-ethylcycloheptanone]	71
CCCCC(CC)CN (configuration not stated) [2-ethyl-1-hexanamine]	50
CC(N)CN (configuration not stated) [1,2-propanediamine]	33
CC=Cc1ccc(OC)cc1 [4-propenylanisole]	96
CCC(C)CCO (configuration not stated) [3-methyl-1-pentanol]	58
CCCc1ccc(O)cc1 [4-propylphenol]	106
CCCc1ccco1 [2-propylfuran]	15
CCCC=O [butanal]	-7
C/C=C/C(C)C [trans-4-methyl-2-pentene]	-27
COC(C)OC [1,1-dimethoxyethane]	-17
C=C(C)C(C)CC (configuration not stated) [2,3-dimethyl-1-pentene]	-17
Sc1ccccc1 [benzenethiol]	51
C#CCCCCCCCCC [1-undecyne]	65
CC1CC=CCC1 (configuration not stated) [4-methylcyclohexene]	-1
CCCC(=O)c1ccccc1 [1-phenyl-1-butanone]	88
COCc1ccccc1 [benzylmethylether]	53
CCCCC=C(C)C [2-methyl-2-heptene]	9
CCC(C)SC(C)CC (configuration not stated) [di-sec-butylsulfide]	39

SMILES	flash point [°C]
BrC1CCCCC1 [bromocyclohexane]	62
CCCCC(C=O)CC (configuration not stated) [2-ethylhexanal]	46
C#CCCC(C)C [5-methyl-1-hexyne]	-7
CCOCC [diethylether]	-40
C[C@@H]1CCCC[C@H]1O (relative stereo) [trans-2-methylcyclohexanol]	59
CCCCCCCCN [octylamine]	60
CCCCCCCCOC=O [octylformate]	69
CC1=CCCO1 [2,3-dihydro-5-methylfuran]	-12
C=CCCCCCCCCCCCCC [1-pentadecene]	113
C=C(C)C(=O)OC [methylmethacrylate]	10
CCCc1ccccc1 [propylbenzene]	30
CCCC(S)CC (configuration not stated) [3-hexanethiol]	30
CC(O)CN (configuration not stated) [1-amino-2-propanol]	67
CCC(C)CCC(C)C (configuration not stated) [2,5-dimethylheptane]	15
O=Cc1ccco1 [furfural]	58
CCCC(O)CC (configuration not stated) [3-hexanol]	45
CC(C)CC(C)C(C)C (configuration not stated) [2,3,5-trimethylhexane]	15
CCC#CCCCCCCCl [10-chloro-3-decyne]	86
CCCCN(CCCC)CCCC [tributylamine]	71
CC(=O)C(C)C [3-methyl-2-butanone]	-1
CCCCC(O)CO (configuration not stated) [1,2-hexanediol]	122
CC(Cl)CO (configuration not stated) [2-chloro-1-propanol]	51
CCCCO [1-butanol]	34
